The values that follow are results of earlier work, collected in US7148022B2, “Assay for anti-viral agent” (The University Court of the University of St. Andrews, priority 2000, dated 2006).

The series concerns picornavirus. The conditions noted are these: background statement, refs 9 and 10.

Turning to `C[C@H]1CCC/C=C/[C@@H]2C[C@H](O)C[C@H]2[C@H](O)/C=C/C(=O)O1` [Brefeldin-A], the “inhibition of picornavirus replication” value is given as “one of the most potent known inhibitors”.
